These results are taken from patent US9669141B2, “Tissue-engineered pumps and valves and uses thereof” (President and Fellows of Harvard College, priority 2012, dated 2017).

Each structure is given as a SMILES string.

The test has as its system Jellyfish swimming muscle. The test is described as follows: Excitation-contraction uncoupling of jellyfish swimming muscle during optical mapping. In kind it is in vivo, Aurelia aurita. Particulars: juvenile jellyfish, artificial seawater at room temperature. The protocol:
PMDS-coated glass cover slips with cardiomyocyte monolayers of medusoid muscle architecture were assayed in a custom-made optical mapping system (FIGS. 7i-o) by adapting previously described protocols. Briefly, the cultures were incubated for 5 minutes in 8 μM RH-237 voltage-sensitive dye (Iex/Iem in DMSO=˜550/˜800 nm; Molecular Probes) in Tyrode's solution, then washed with Tyrode's solution. During recording, the tissue was placed in Tyrode's solution containing 10 μM excitation-contraction uncoupler blebbistatin, thereby minimizing motion artifacts. All solutions were maintained at 35-37° C. A platinum point electrode connected to a Grass S48 stimulator (Grass technologies, West Warwick, R.I. 02893, USA) was placed ˜1 mm above the culture surface (FIG. 7i) and used to apply point stimuli (2 Hz, 5-8 V, 10-ms duration). Imaging was performed using an inverted microscope (Zeiss Axiovert 200; Carl Zeiss MicroImaging, LLC Thornwood, N.Y. 10594, USA) equipped with a 40× Plan-Neofluar (1.3 NA) oil-immersion objective, a fluorescence light source (Hamamatsu L2422 100 Watt Mercury-Xenon lamp) and a filter cube appropriate for RH237 imaging (Zeiss EX BP530-585, DC FT600, EM LP615). Fluorescence shutter opening and closing was synchronized with the pacing stimulus. Membrane voltage signals were optically recorded at 5 Hz using a honeycomb of 124 independent optical fibers, each monitoring an approximately circular field of view of 25 μm in diameter (FIGS. 6j and 6k) and each connected to a discrete photodiode transimpedance amplifier. The outputs of the photodiode amplifiers were digitized by a bank of differential amplifiers and DAQ cards (National Instruments Corporation, Austin, Tex. 78759, USA). Digitized signals were processed using custom-made software implemented in MATLAB (MathWorks, Natick, Mass. 01760, USA) (FIG. 7l). Activation times, defined as the time point of maximum positive slope of the action potential, served to calculate isochronal maps of activation and velocity vector fields across the field of view monitored by the LED array (FIGS. 7m and 7o).
Optical mapping in jellyfish (FIG. 7a-7h) was performed as in medusoid coverslips except for the following differences. All procedures were carried out in artificial seawater at room temperature (KENT Marine Sea Salt, KENT Marine Sea, 5401 West Oakwood Park Drive, Franklin, Wis. 53132). […] Thus, to constrain movement, an additional cover slip was placed on top of the jellyfish using vacuum grease as a spacer. […] Subsequently, activation times, isochronal maps and velocity vector fields were calculated as above (FIGS. 7e-7h).
Consider `CC(=O)C(C)=NO` [2,3-butanedione monoxime (BDM), 2,3-butanedione monoxime], for which the “sensitivity of jellyfish swimming muscle to excitation-contraction uncoupling agents” value was “insensitive”. The value for `Cc1ccc2c(c1)C(=O)C1(O)CCN(c3ccccc3)C1=N2` (stereo not shown) [blebbistatin] was “insensitive”; that for `C=C1[C@@H](C)[C@H]2[C@H](Cc3ccccc3)NC(=O)[C@]23[C@H](OC(C)=O)/C=C/[C@@](C)(O)C(=O)[C@@H](C)C/C=C/[C@H]3[C@@H]1O` [cytochalasin D] was “insensitive”. As for `O=C1CN(/N=C/c2ccc(-c3ccc([N+](=O)[O-])cc3)o2)C(O)=N1` [dantrolene sodium], the “sensitivity of jellyfish swimming muscle to excitation-contraction uncoupling agents” value was “insensitive”.
